Consider 65 molecules from US11896592B2, “Certain triazolopyridines and triazolopyrazines, compositions thereof and methods of use therefor” (Hutchison Medipharma Limited, priority 2009, dated 2024).

Like-named read-outs stand apart in the source and are kept apart here.

The target in this assay is T1, Recombinant human Met (c-Met) (Homo sapiens, UniProt P08581).
T1 construct: purchased Invitrogen PV3143
The assay is described as follows: Inhibition of c-Met kinase activity using Transcreener FP assay. The assay is classed as biochemical. To be noted: Poly E4Y substrate, 28° C. 45 min. On the procedure: Compound dilution: dilute test articles to 5 folds of the testing concentration using 20% DMSO.
The mixture is kept on ice until use;
Prepare ATP standard curve stock as following:
3. Enzymatic reaction: in 96-well reaction plate
Add 5 μL of test article or 5 μL of 20% DMSO or 5 μL of 500 mM EDTA;
Add 10 μL of Enzyme/Substrate stock;
Add 10 μL of ATP Diluent to begin the enzyme reaction and mix on plate shaker;
Add 5 μL of 20% DMSO, 10 μL of assay buffer and 10 μL of ATP standard curve stock into standard curve wells;
Gently shake at 28° C. for 45 min.
4. Stop reaction and detect ADP
Prepare Detection Mix: According to the procedures described in the Assay kit, Alexa633 tracer, ADP antibody and stop & detect buffer were added into H2O and mixed thoroughly. Prepare Tracer Only control: According to the procedures described in the Assay kit, ADP Alexa633 tracer and stop & detect buffer were added to H2O and mixed throughly.
Prepare No Tracer control: According to the procedures described in the Assay kit, the stop & detect buffer was diluted with H2O;
Add 25 μL of detection mix, Tracer Only control and No Tracer control into corresponding wells, respectively;
The reaction plate was gently shaken at 28° C. for 1 h;
Florescence polarization (FP) was measured on TECAN F500. Excitation wavelength: 610 nm, Emission wavelength: 670 nm.
Compound well [ADP] represents the ADP concentration of the compound well. Positive control well [ADP] represents the ADP concentration of the 20% DMSO well. Conversion of mP value to ADP concentration is based on the formula which is determined by standard curve.
IC50: calculated using XL-Fit 2.0 software.

[1] abbreviates: read-out: IC50, inhibition of c-Met kinase activity.

T1 sequence (P08581 956-1390 limits assumed): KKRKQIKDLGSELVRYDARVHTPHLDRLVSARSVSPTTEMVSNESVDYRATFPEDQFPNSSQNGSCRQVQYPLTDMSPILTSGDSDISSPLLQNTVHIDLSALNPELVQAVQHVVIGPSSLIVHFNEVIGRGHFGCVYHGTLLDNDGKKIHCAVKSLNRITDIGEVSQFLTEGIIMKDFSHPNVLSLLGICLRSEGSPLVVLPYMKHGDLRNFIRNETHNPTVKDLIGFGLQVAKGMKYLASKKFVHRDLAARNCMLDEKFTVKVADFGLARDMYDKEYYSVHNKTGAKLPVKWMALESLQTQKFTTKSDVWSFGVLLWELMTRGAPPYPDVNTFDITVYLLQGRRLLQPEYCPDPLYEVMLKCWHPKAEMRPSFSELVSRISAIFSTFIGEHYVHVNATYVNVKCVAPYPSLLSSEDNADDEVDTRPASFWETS

In the case of `Cn1cc(-c2cnc3nnn(Cc4ccc5ncc(CN6CCOCC6)n5c4)c3n2)cn1` [Compound 320], the half-maximal inhibitory concentration (IC50) under setting [1] was 100 to 1000 nM. As to `Cn1cc(-c2ccc3nnn(Cc4ccc5nccn5c4)c3n2)cn1` [Compound 133], the IC50 under setting [1] lay within 1 to 100 nM.

As for `OCCn1cc(-c2ccc3nnn(Cc4ccc5ncccc5c4)c3n2)cn1` [Compound 61], the IC50 under setting [1] was 1 to 100 nM. Turning to `Cn1cnc(-c2ccc3nnn(Cc4ccc5ncccc5c4)c3n2)c1` [Compound 108], the IC50 under setting [1] is 100 to 1000 nM. Turning to `C[C@@H](c1ccc2ncccc2c1)n1nnc2ccc(-c3cnn(CCO)c3)nc21` [Compound 77], the IC50 under setting [1] was 1 to 100 nM. Still for that read-out and setting: then `Nc1ccc(-c2ccc3nnn(Cc4ccc5ncccc5c4)c3n2)cn1` [Compound 62], with 1 to 100 nM; and `O[C@@H]1CCC[C@H]1Nc1cc(Nc2cnc3nnn(Cc4ccc5ncccc5c4)c3n2)ccn1` [Compound 207], with 1 to 100 nM. As for `COCc1cnn2ccc(Cn3nnc4ncc(-c5cnn(CCO)c5)nc43)cc12` [Compound 322, 2-(4-(1-((3-(Methoxymethyl)pyrazolo[1,5-a]pyridin-5-yl)methyl)-1H-[1,2,3]triazolo[4,5-b]pyrazin-6-yl)-1H-pyrazol-1-yl)ethanol], the IC50 under setting [1] was 1 to 100 nM.

Consider `OCCn1cc(-c2cnc3nnn(Cc4csc5ncccc45)c3n2)cn1` [Compound 30], for which the IC50 under setting [1] lay within 100 to 1000 nM. The same measure, in the same setting: then `CNc1ccc(-c2ccc3nnn(Cc4ccc5ncccc5c4)c3n2)cn1` [Compound 76], with 1 to 100 nM; and `c1ccc(Nc2cnc3nnn(Cc4ccc5ncccc5c4)c3n2)nc1` [Compound 168], with 1 to 100 nM. Turning to `COc1ccc(Nc2cnc3nnn(Cc4ccc5ncccc5c4)c3n2)cn1` [Compound 162], the half-maximal inhibitory concentration (IC50) under setting [1] is 1 to 100 nM. In the case of `Cn1cc(-c2ccc3nnn(Cc4ccc5ncsc5c4)c3n2)cn1` [Compound 72], the IC50 under setting [1] was in the range of 1 to 100 nM. For the molecule `COCCn1cc(-c2ccc3nnn(Cc4ccc5ncccc5c4)c3n2)cn1` [Compound 93], under setting [1], the IC50 lay in the range of 100 to 1000 nM. As to `Cc1cccc(Nc2cnc3nnn(Cc4ccc5ncccc5c4)c3n2)n1` [Compound 157], under setting [1], the IC50 fell in the range of 1 to 100 nM. In the case of `O=Cc1cnn2ccc(Cn3nnc4ncc(-c5cnn(CCO)c5)nc43)cc12` [Compound 312, 5-((6-(1-(2-Hydroxyethyl)-1H-pyrazol-4-yl)-1H-[1,2,3]triazolo[4,5-b]pyrazin-1-yl)methyl)pyrazolo[1,5-a]pyridine-3-carbaldehyde], the IC50 under setting [1] lay in the range of 1 to 100 nM.

Take `CN1CC[C@H](Nc2cc(Nc3cnc4nnn(Cc5ccc6ncccc6c5)c4n3)ccn2)C1` [Compound 229]: the IC50 under setting [1] is 1 to 100 nM. Turning to `Cc1cccnc1Nc1cnc2nnn(Cc3ccc4ncccc4c3)c2n1` [Compound 188], the IC50 under setting [1] fell in the range of 1 to 100 nM.

For the molecule `c1cnc2[nH]cc(Cn3nnc4ccc(-c5cnn(C6CCNCC6)c5)nc43)c2c1` [Compound 116], the IC50 under setting [1] lay within 100 to 1000 nM. As for `COCc1cnc2ccc(Cn3nnc4ncc(-c5cnn(C)c5)nc43)cn12` [Compound 308], the IC50 under setting [1] is 1 to 100 nM. In the case of `OCC1CCN(c2ccc3nnn(Cc4ccc5ncccc5c4)c3n2)CC1` [Compound 245], under setting [1], the IC50 fell in the range of 1 to 100 nM.

Regarding `Cn1cc(-c2cnc3nnn(Cc4ccc5ncc(CO)n5c4)c3n2)cn1` [Compound 272], the IC50 under setting [1] was in the range of 1 to 100 nM.

For the molecule `c1cnc2ccc(Cn3nnc4ccc(-n5ccnc5)nc43)cc2c1` [Compound 214], the half-inhibitory concentration (IC50) under setting [1] lay in the range of 1 to 100 nM.

As for `OC1CCN(c2ccc3nnn(Cc4ccc5ncccc5c4)c3n2)C1` (centres unmarked) [Compound 246], the IC50 under setting [1] was 1 to 100 nM.

As for `O=C(O)Cn1cc(-c2ccc3nnn(Cc4ccc5ncccc5c4)c3n2)cn1` [Compound 66], the IC50 under setting [1] was in the range of 100 to 1000 nM. On to `COCCOc1cccc(Nc2cnc3nnn(Cc4ccc5ncccc5c4)c3n2)n1` [Compound 227], for which the IC50 under setting [1] lay within 1 to 100 nM. The same measure, in the same setting: under `CCn1cc(-c2cnc3nnn(Cc4ccc5nccn5c4)c3n2)cn1` [Compound 8] stands 1 to 100 nM. Consider `Cc1csc(Nc2cnc3nnn(Cc4ccc5ncccc5c4)c3n2)n1` [Compound 172], for which the IC50 under setting [1] was 1 to 100 nM. The same measure, in the same setting: then `CCn1cc(-c2ccc3nnn(Cc4ccc5nccn5c4)c3n2)cn1` [Compound 135], with 1 to 100 nM. Consider `c1c[nH]c(-c2ccc3nnn(Cc4ccc5ncccc5c4)c3n2)c1` [Compound 64], for which the IC50 under setting [1] fell in the range of 100 to 1000 nM. With `CN(C)Cc1ccc(-c2ccc3nnn(Cc4ccc5ncccc5c4)c3n2)s1` [Compound 105], the IC50 under setting [1] is 100 to 1000 nM. Turning to `COC(=O)c1cnn2ccc(Cn3nnc4ncc(-c5cnn(CCO)c5)nc43)cc12` [Compound 304], the IC50 under setting [1] was in the range of 1 to 100 nM. In the case of `OCCn1cc(-c2cnc3nnn(Cc4cc5[nH]ncc5s4)c3n2)cn1` [Compound 13], the concentration for half-maximal inhibition (IC50) under setting [1] lay in the range of 1 to 100 nM.

Regarding `COc1cncc(Nc2cnc3nnn(Cc4ccc5ncccc5c4)c3n2)c1` [Compound 156], under setting [1], the IC50 lay within 1 to 100 nM. For `Nc1cccc(Oc2cnc3nnn(Cc4ccc5ncccc5c4)c3n2)n1` [Compound 259], the IC50 under setting [1] lay within 1 to 100 nM. Take `Cn1ccc(Nc2cnc3nnn(Cc4ccc5ncccc5c4)c3n2)n1` [Compound 152, N-(1-methyl-1H-pyrazol-3-yl)-1-(quinolin-6-ylmethyl)-1H-[1,2,3]triazolo-[4,5-b]pyrazin-6-amine]: the IC50 under setting [1] lay in the range of 1 to 100 nM. Same read-out and setting: then `c1cnc2ccc(Cn3nnc4ncc(Nc5ccncc5)nc43)cc2c1` [Compound 169], with 1 to 100 nM; and `O=C(Cn1cc(-c2cnc3nnn(Cc4ccc5ncsc5c4)c3n2)cn1)NC1CC1` [Compound 24], with 1 to 100 nM; and `COc1ccncc1Nc1cnc2nnn(Cc3ccc4ncccc4c3)c2n1` [Compound 210], with 1 to 100 nM. On to `CC(C)n1cc(-c2ccc3nnn(Cc4ccc5ncccc5c4)c3n2)cn1` [Compound 144], for which the IC50 under setting [1] lay in the range of 1 to 100 nM. Still for that read-out and setting: then `CN(C)Cc1cnc2ccc(Cn3nnc4ncc(-c5cnn(C)c5)nc43)cn12` [Compound 319], with 1 to 100 nM; and `COCCn1cc(-c2cnc3nnn(Cc4ccc5nccn5c4)c3n2)cn1` [Compound 58], with 1 to 100 nM; and `O[C@@H]1CCC[C@H]1Nc1ccc2nnn(Cc3ccc4ncccc4c3)c2n1` [Compound 241], with 100 to 1000 nM. Turning to `N#Cc1ccc(-c2cnc3nnn(Cc4cc5[nH]ncc5s4)c3n2)cn1` [Compound 282], under setting [1], the half-inhibitory concentration (IC50) fell in the range of 1 to 100 nM. `CNC(=O)c1ccc(-c2ccc3nnn(Cc4ccc5ncccc5c4)c3n2)cn1` [Compound 83]: the IC50 under setting [1] was in the range of 1 to 100 nM.

Take `COCCn1cc(-c2cnc3nnn(Cc4ccc5ncnn5c4)c3n2)cn1` [Compound 53]: the IC50 under setting [1] fell in the range of 100 to 1000 nM.

Turning to `C[C@@H](c1ccc2nccn2c1)n1nnc2ncc(-c3cnn(C)c3)nc21` [Compound 270], the IC50 (IC50, inhibition of c-Met kinase activity) is 1 to 100 nM. As for `CNC(=O)c1cncc(Nc2cnc3nnn(Cc4ccc5ncccc5c4)c3n2)c1` [Compound 192], under setting [1], the IC50 was in the range of 1 to 100 nM. As to `OCCn1cc(Nc2cnc3nnn(Cc4ccc5ncsc5c4)c3n2)cn1` [Compound 240], under setting [1], the IC50 lay within 1 to 100 nM. Regarding `Brc1cnc2nnn(Cc3ccc4ncnn4c3)c2n1` [Compound 284], the IC50 under setting [1] is 100 to 1000 nM. In the case of `OCCn1cc(-c2ccc3nnn(Cc4ccc5ncccc5c4F)c3n2)cn1` [Compound 130], the IC50 under setting [1] was in the range of 1 to 100 nM. Still for that read-out and setting: then `COCCOc1cccc(Nc2cnc3nnn(Cc4ccc5ncccc5c4)c3n2)c1` [Compound 202], with 1 to 100 nM; and `N#Cc1ccc(Nc2cnc3nnn(Cc4ccc5ncccc5c4)c3n2)nc1` [Compound 225], with 1 to 100 nM; and `Cc1cc(Nc2ccc3nnn(Cc4ccc5ncccc5c4)c3n2)ccn1` [Compound 235], with 1 to 100 nM.

For `Cn1cc(-c2ccc3nnn(Cc4cc5cnccc5s4)c3n2)cn1` [Compound 71], the IC50 under setting [1] lay in the range of 100 to 1000 nM.

Turning to `OCCn1cc(-c2cnc3nnn(Cc4ccn5nccc5n4)c3n2)cn1` [Compound 288], under setting [1], the IC50 lay in the range of 100 to 1000 nM.

With `CNCCCn1cc(-c2ccc3nnn(Cc4ccc5ncccc5c4)c3n2)cn1` [Compound 92], under setting [1], the IC50 lay within 100 to 1000 nM.

Regarding `FC(F)(F)Cn1cc(-c2ccc3nnn(Cc4ccc5nccn5c4)c3n2)cn1` [Compound 141], the IC50 under setting [1] lay within 1 to 100 nM. Regarding `N#CCn1cc(-c2cnc3nnn(Cc4ccn5nccc5c4)c3n2)cn1` [Compound 301], the IC50 under setting [1] was 1 to 100 nM.

Take `Cn1cc(-c2cnc3nnn(Cc4c[nH]c5ncccc45)c3n2)cn1` [Compound 1, 1-((1H-Pyrrolo[2,3-b]pyridin-3-yl)methyl)-6-(1-methyl-1H-pyrazol-4-yl)-1H-[1,2,3]-triazolo[4,5-b]pyrazine]: under setting [1], the IC50 was 1 to 100 nM. As to `Cn1cc(-c2ccc3nnn(Cc4cc5cccnc5cc4F)c3n2)cn1` [Compound 127], the half-maximal inhibitory concentration (IC50) under setting [1] was 1 to 100 nM. For the molecule `COc1cncc(Nc2ccc3nnn(Cc4ccc5ncccc5c4)c3n2)c1` [Compound 180], under setting [1], the IC50 is 1 to 100 nM. On to `COCCOc1ccc(-c2ccc3nnn(Cc4ccc5ncccc5c4)c3n2)cn1` [Compound 99], for which the 50% inhibitory concentration (IC50) under setting [1] lay within 100 to 1000 nM. Still for that read-out and setting: under `FC(F)(F)Cn1cc(-c2cnc3nnn(Cc4cc5[nH]ncc5s4)c3n2)cn1` [Compound 42] stands 1 to 100 nM; under `Cc1cc(Nc2cnc3nnn(Cc4ccc5ncccc5c4)c3n2)ccn1` [Compound 163], 1 to 100 nM.

For orientation: IC50 means the concentration that gives 50% inhibition.
